Experimental data published in PMC6959841, “Kinetic Optimization of Lysine-Targeting Covalent Inhibitors of HSP72” (Journal of Medicinal Chemistry, 2019).
Entries after “also recorded” stand apart in the source; their conditions may differ.

How the values were obtained:
HSP72 = settings: read-out: KM for ATP; cited from earlier work
HSP72-NBD [1] = target: T1, HSP72-NBD (Homo sapiens, UniProt P0DMV8); assay: Covalent (kinetic) FP-assay; type: binding
HSP72-NBD [2] = target: T1, HSP72-NBD; settings: even at high concentrations; cited from earlier work
HSP72-NBD [3] = target: T1, HSP72-NBD; assay: HSP72-NBD nucleotide-derived FP-assay (probe displacement, App. Ki, time-dependent); type: binding
HSP72-NBD [4] = target: T1, HSP72-NBD; assay: Intact-protein mass spectrometry of covalent adduct formation; type: binding; settings: 20 μM compound, 2.0 μM HSP72-NBD, 21 °C

T1 sequence (P0DMV8 2-386 limits assumed): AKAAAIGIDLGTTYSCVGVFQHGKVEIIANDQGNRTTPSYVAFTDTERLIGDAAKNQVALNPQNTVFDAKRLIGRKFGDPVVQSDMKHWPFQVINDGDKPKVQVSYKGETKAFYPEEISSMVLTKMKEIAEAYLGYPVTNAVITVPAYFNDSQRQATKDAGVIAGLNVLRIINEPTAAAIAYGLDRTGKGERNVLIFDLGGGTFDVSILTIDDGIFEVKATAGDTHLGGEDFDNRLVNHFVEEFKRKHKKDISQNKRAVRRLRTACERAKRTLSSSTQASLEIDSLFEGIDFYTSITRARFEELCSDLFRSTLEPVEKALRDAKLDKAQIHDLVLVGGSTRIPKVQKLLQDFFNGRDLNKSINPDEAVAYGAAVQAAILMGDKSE

Nc1ncnc2c1ncn2[C@@H]1O[C@H](COP(=O)(O)OP(=O)(O)OP(=O)(O)O)[C@@H](O)[C@H]1O [ATP]
Km (HSP72): ~1 µM

C=CC(=O)OCCC[C@H]1O[C@@H](n2c(NCc3ccc(Cl)cc3)nc3c(N)ncnc32)[C@H](O)[C@@H]1O [Compound 2, 3-((2R,3S,4R,5R)-5-(6-amino-8-((4-chlorobenzyl)amino)-9H-purin-9-yl)-3,4-dihydroxytetrahydrofuran-2-yl)propyl acrylate]
kinact (HSP72-NBD [1]; from kinact/KI and initial Ki, assuming KI = Ki): 1.6e-05 s⁻¹
t1/2^inf (HSP72-NBD [1]; ln 2/kinact): 12 h
exposure required for complete formation of the covalent complex by intact-protein MS (HSP72-NBD [2]): > 24 h
Ki (HSP72-NBD [3]; Time 19 h): 7.2 µM
Ki (HSP72-NBD [3]; Time 46 h): 3.7 µM
Ki (HSP72-NBD [3]; Time […] (printed 0.08 3)): 17 µM

Nc1ncnc2c1nc(NCc1ccc(Cl)cc1)n2[C@@H]1O[C@H](COCc2ccc(C(=O)Oc3ccc(F)cc3)cc2)[C@@H](O)[C@H]1O [Compound 8, 4-fluorophenyl 4-((((2R,3S,4R,5R)-5-(6-amino-8-((4-chlorobenzyl)amino)-9H-purin-9-yl)-3,4-dihydroxytetrahydrofuran-2-yl)methoxy)methyl)benzoate]
covalent-bond formation by intact-protein MS (HSP72-NBD [4]): no evidence of specific and selective covalent-bond formation

CC1(C)O[C@@H]2[C@H](O1)[C@@H](COC(=O)c1ccc(S(=O)(=O)F)cc1)O[C@H]2n1c(NCc2ccc(Cl)cc2)nc2c(N)ncnc21 [Compound 13, ((3aR,4R,6R,6aR)-6-(6-amino-8-((4-chlorobenzyl)amino)-9H-purin-9-yl)-2,2-dimethyltetrahydrofuro[3,4-d][1,3]dioxol-4-yl)methyl 4-(fluorosulfonyl)benzoate]
covalent-bond formation by intact-protein MS (HSP72-NBD [4]): no reaction; also recorded: no reactivity
reversible binding affinity (HSP72-NBD [3]): no reversible binding affinity
time dependence of App. Ki / probe displacement curve (HSP72-NBD [3]; WT HSP72-NBD): no time-dependent displacement

N#Cc1ccc(C(=O)OC[C@H]2O[C@@H](n3c(NCc4ccc(Cl)cc4)nc4c(N)ncnc43)[C@H](O)[C@@H]2O)cc1 [Compound 15, ((2R,3S,4R,5R)-5-(6-amino-8-((4-chlorobenzyl)amino)-9H-purin-9-yl)-3,4-dihydroxytetrahydrofuran-2-yl)methyl 4-cyanobenzoate]
fold weaker/less potent than tight-binding reversible MMP 9 (HSP72-NBD [3]): > 18 fold

Nc1ncnc2c1ncn2[C@@H]1O[C@H](COC(=O)c2ccc(S(=O)(=O)F)cc2)[C@@H](O)[C@H]1O [Compound 16, ((2R,3S,4R,5R)-5-(6-amino-9H-purin-9-yl)-3,4-dihydroxytetrahydrofuran-2-yl)methyl 4-(fluorosulfonyl)benzoate]
fold weaker activity / decrease in covalent efficiency vs TCI 14 (HSP72-NBD [1]): 70 fold
